Measurements from patent US8853394B2, “Pharmacokinetically improved compounds” (Surface Logix, Inc., priority 2006, dated 2014).
pIC50: −log10 of the molar value. Values after ≈ are worked out from the molar mass of the structure shown. Read-outs that look alike come from different tables or passages of the source.

Tests used:
PAMPA permeability = format: in vitro ADME
Protein Binding = format: in vitro ADME; details: human, human serum components
Experimental: In general, protein binding is assessed by measuring the capacity of molecules of the invention to bind to one or more human serum components or mimics thereof. In one embodiment, suitable functional residues may be identified by screening of surfaces comprising such residues for their ability to resist adsorption of serum components, including, but not limited to serum proteins, and preferably human serum proteins. Candidate residues can be screened directly by attaching them to a solid support and testing the support for protein resistance. Alternatively, candidate residues are incorporated into, or linked to molecules of pharmaceutical interest. Such compounds may be synthesized on a solid support, or bound to a solid support after synthesis. In a non-limiting example of a direct binding assay, immobilized candidate functional residues or molecules incorporating such residues are tested for their ability to bind serum components. The serum components can be labeled with a signaling moiety for detection, or a labeled secondary reagent that binds to such serum components can be used.
A direct binding analysis can also be preformed in liquid phase. For example, test compounds can be mixed with one or more serum components in liquid phase, and the unbound molecules determined.

Caco-2 permeability = format: in vitro ADME; details: human; for Papp A→B: AtoB; for Papp B→A: BtoA
Description: Several model systems are available, employing monolayers of various cell types, for evaluation of active transport of pharmaceutically active substances. For example, monolayers of Caco-2 intestinal epithelial cells can be used to evaluate active transport of substances between the intestine and the bloodstream. When plated on a surface which allows the flow of material from apical to basolateral and vice versa, such cells form a biological membrane which can be used to simulate physiological absorption and bioavailability. In another example, mouse brain capillary endothelial cell (MBEC) lines have been established to evaluate active transport in and out of the central nervous system. Another example of such cells is HT29 human colon carcinoma cells. Further, monolayers expressing particular transporter proteins can be established using transfected cells. For example, Sasaki et al (2002) J. Biol. Chem. 8:6497 used a double-transfected Madin-Darby canine kidney cell monolayer to study transport of organic anions.

PDE-1 = PDE-1 inhibition; format: biochemical
PDE-6 bovine = molecular target: T1, PDE-6 bovine (Bos taurus, UniProt P11541+P23439); assay: PDE-6 bovine inhibition; format: biochemical
T1 sequence (P11541 2-856 limits assumed): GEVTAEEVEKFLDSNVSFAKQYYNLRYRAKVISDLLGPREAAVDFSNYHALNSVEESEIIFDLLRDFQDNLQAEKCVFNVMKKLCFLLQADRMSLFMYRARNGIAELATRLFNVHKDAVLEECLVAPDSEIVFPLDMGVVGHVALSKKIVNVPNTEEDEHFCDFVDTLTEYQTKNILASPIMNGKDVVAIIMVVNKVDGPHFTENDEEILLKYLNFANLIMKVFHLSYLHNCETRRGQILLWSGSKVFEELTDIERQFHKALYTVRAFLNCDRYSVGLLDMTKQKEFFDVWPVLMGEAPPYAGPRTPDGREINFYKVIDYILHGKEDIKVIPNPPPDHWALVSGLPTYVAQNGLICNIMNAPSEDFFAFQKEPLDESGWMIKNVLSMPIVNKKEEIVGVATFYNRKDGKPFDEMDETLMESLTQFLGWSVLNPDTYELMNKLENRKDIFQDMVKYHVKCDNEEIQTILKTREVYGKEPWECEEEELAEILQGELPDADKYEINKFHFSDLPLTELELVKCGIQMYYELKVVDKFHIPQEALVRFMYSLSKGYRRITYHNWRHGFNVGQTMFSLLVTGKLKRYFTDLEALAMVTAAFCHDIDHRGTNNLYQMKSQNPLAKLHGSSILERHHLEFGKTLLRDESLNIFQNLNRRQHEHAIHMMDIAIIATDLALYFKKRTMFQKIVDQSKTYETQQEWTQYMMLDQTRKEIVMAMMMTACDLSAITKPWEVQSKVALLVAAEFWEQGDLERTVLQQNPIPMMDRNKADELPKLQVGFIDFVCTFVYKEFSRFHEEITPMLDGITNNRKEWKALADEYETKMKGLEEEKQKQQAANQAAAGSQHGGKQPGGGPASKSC
T1 sequence (P23439 2-850 limits assumed): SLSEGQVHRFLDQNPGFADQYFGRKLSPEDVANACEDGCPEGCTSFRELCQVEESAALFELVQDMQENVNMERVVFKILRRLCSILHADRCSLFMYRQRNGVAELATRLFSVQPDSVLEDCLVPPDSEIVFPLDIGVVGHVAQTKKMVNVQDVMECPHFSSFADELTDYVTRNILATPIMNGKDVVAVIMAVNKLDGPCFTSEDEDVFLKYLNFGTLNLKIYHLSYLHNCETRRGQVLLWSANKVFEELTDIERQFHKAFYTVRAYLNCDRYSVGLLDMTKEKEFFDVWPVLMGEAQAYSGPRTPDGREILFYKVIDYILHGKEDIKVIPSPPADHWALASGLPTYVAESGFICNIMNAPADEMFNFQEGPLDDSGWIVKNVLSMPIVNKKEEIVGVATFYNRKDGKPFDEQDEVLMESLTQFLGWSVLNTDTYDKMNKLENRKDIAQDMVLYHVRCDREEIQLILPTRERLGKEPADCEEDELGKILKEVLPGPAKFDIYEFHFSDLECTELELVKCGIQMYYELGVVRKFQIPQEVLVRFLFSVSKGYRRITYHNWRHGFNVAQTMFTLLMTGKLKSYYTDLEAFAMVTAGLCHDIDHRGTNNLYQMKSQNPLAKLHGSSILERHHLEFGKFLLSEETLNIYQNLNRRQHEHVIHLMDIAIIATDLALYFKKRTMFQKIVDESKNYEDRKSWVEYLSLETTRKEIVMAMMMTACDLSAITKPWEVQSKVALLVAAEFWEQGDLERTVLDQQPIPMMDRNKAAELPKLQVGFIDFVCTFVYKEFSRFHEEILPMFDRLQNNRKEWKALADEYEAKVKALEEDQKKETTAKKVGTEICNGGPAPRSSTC

PDE5 = PDE5 (Homo sapiens, UniProt O76074); assay: PDE-5 human inhibition; format: biochemical
PDE-3 = PDE-3 inhibition; format: biochemical
Non-Spec Binding = format: in vitro ADME
PDE-4 human = PDE-4 human inhibition; format: biochemical
[1] = T1/2 in human liver microsomes; format: in vitro ADME
[2] = T1/2 in rat liver microsomes; format: in vitro ADME
Solubility = format: physicochemical
[3] = Chronic Cytoxicity (mouse 3T3); format: cell-based; details: 3T3 cells
[4] = pH 2.7, aqueous buffer, read-out: Solubility (ug/mL) pH 2.7
[5] = pH 7.4, aqueous buffer, read-out: Solubility (ug/mL) pH 7.4

Row | Papp (PAMPA permeability; Hex, read-out: PAMPA Hex) [×10⁻⁶ cm/s] | fraction unbound (Protein Binding) | Papp A→B (Caco-2 permeability) [×10⁻⁶ cm/s] | Papp B→A (Caco-2 permeability) [×10⁻⁶ cm/s] | pIC50 (PDE-1) | pIC50 (PDE-6 bovine) | pIC50 (PDE5) | pIC50 (PDE-3) | Non-Spec Binding (%) (Non-Spec Binding) | pIC50 (PDE-4 human) | half-life [1] [min] | half-life [2] [min] | solubility (Solubility; [4]) [µg/mL] | solubility (Solubility; [5]) [µg/mL] | Papp (PAMPA permeability; Lec, read-out: PAMPA Lec) [×10⁻⁶ cm/s] | Structure (SMILES) | GI50 [3] [µM] | LC50 (50% lethal concentration) [3] [µM]
1 | 76.1 | 0.018 | 48.6 | 57.4 | 7.83 | 8.54 | 9.45 | 6.11 | 25.5 |  |  |  |  |  |  | CCCc1nc(C)c2c(=O)[nH]c(-c3cc(S(=O)(=O)N(C)C[C@H](COC)OC)ccc3OCC)nn12 [Compound 7] |  | 
2 | 49 | 0.012 |  |  | 7.92 | 8.59 | 9.47 | 6.26 | 89.9 |  |  |  |  |  |  | CCCc1nc(C)c2c(=O)[nH]c(-c3cc(S(=O)(=O)N(CCOCC)CCOCC)ccc3OCC)nn12 [Compound 10] |  | 
3 |  | 0.016 | 40.5 | 39.4 | 8.59 | 9.07 | 10.18 | 6.41 | 36.5 | 5.96 | 1.08 | 6.83 |  |  |  | CCCc1nc(C)c2c(=O)[nH]c(-c3cc(S(=O)(=O)N(C)CC(OC)OC)ccc3OCC)nn12 [Compound 17] |  | 
4 | ~0.08 |  | 4.3 | 28.1 | 7.59 | 7.77 | 9.28 | 5.82 |  |  |  |  |  |  |  | CCCc1nc(C)c2c(=O)[nH]c(-c3cc(S(=O)(=O)N(CCO)CCO)ccc3OCC)nn12 [Compound 6] |  | 
5 | 1.17 |  | 1.48 | 9.88 | 7.09 | 7.79 | 9.19 | 5.71 |  |  |  |  | > 50 | > 50 | 1.47 | CCCc1nc(C)c2c(=O)[nH]c(-c3cc(S(=O)(=O)N(C)CCNC)ccc3OCC)nn12 [Compound 2] | > 75 | > 75
6 |  | 0.104 | 7.86 | 44.8 | 8.59 | 9.16 | 10.25 | 5.92 | 15.5 | 6.16 | 22.4 | 24 |  |  |  | CCCc1nc(C)c2c(=O)[nH]c(-c3cc(S(=O)(=O)N4CCN(C(=O)C5CCCO5)CC4)ccc3OCC)nn12 (stereo not drawn) [Compound 19] |  | 
7 |  | 0.037 |  |  | 7.94 | 9.20 | 9.87 | 5.93 | 7.4 | 6.03 |  |  | 93.3 (≈ 181 µM) | 90.9 (≈ 176 µM) |  | CCCc1nc(C)c2c(=O)[nH]c(-c3cc(S(=O)(=O)N(C)CCN4CCCC4=O)ccc3OCC)nn12 [Compound 20] |  | 
8 | ~0.0062 |  |  |  | 7.73 | 8.25 | 8.97 | 5.69 |  |  |  |  |  |  | 0.0019 | CCCc1nc(C)c2c(=O)[nH]c(-c3cc(S(=O)(=O)NCCO)ccc3OCC)nn12 [Compound 4] | ~50 | > 100
9 | 68.9 | 0.024 | 45.4 | 47.4 | 7.51 | 8.30 | 9.00 | 5.92 | 44.2 |  |  |  |  |  |  | CCCc1nc(C)c2c(=O)[nH]c(-c3cc(S(=O)(=O)N(C)C)ccc3OCC)nn12 [Compound 8] |  | 
10 | 3.86 |  | 6.87 | 30.5 | 7.32 | 7.64 | 9.00 | 5.68 |  |  |  |  | > 50 | > 50 |  | CCCc1nc(C)c2c(=O)[nH]c(-c3cc(S(=O)(=O)N4CCC[C@H]4CN4CCCC4)ccc3OCC)nn12.Cl [Compound 11] | 25 | > 100
11 |  | 0.024 | 20.6 | 48.8 | 7.92 | 8.54 | 9.98 | 6.19 | 9.9 | 5.81 |  |  |  |  |  | CCCc1nc(C)c2c(=O)[nH]c(-c3cc(S(=O)(=O)N(C)CC(=O)N(C)OC)ccc3OCC)nn12 [Compound 14] |  | 
12 |  | 0.116 |  |  | 7.73 | 9.04 | 10.30 | 6.29 | 0.8 | 5.53 |  |  |  |  |  | CCCc1nc(C)c2c(=O)[nH]c(-c3cc(S(=O)(=O)N4CCN(CC(=O)N5CCOCC5)CC4)ccc3OCC)nn12 [Compound 22] |  | 
13 |  |  |  |  | 7.82 | 9.21 | 9.72 | 5.43 |  | 5.64 |  |  |  |  |  | CCCNS(=O)(=O)c1ccc(OCC)c(-c2nn3c(CCC)nc(C)c3c(=O)[nH]2)c1 [Compound 23] |  | 
14 | 53.9 |  | 50.8 | 50.4 | 7.92 | 8.43 | 9.97 | 6.49 |  |  |  |  | 90.2 (≈ 195 µM) | 15 (≈ 32.5 µM) |  | CCCc1nc(C)c2c(=O)[nH]c(-c3cc(S(=O)(=O)N(C)C(C)(C)C)ccc3OCC)nn12 [Compound 3] | > 50 | > 100
15 |  | 0.025 | 2.2 | 5.5 | 7.62 | 9.32 | 10.00 | 5.89 | 0.8 | 5.30 |  |  |  |  |  | CCCc1nc(C)c2c(=O)[nH]c(-c3cc(S(=O)(=O)N(C)CC(=O)O)ccc3OCC)nn12 [Compound 12] |  | 
